According to a melting point compilation (Tetko et al.; mined from patent text by program, amines drawn as free bases though some values may be those of a salt):

Compound | melting point [°C]
COc1ccc([C@@H]2Sc3cc(Oc4ccc(F)cc4)ccc3N(CCN(C)C)C(=O)[C@@H]2OC(C)=O)cc1F | 128 to 132
CC(C)(CCCCCCC(C)(C)CCC(=O)O)CCC(=O)O | 88 to 89
CC(=O)Oc1ccc2c(c1)OC(C)(c1ccccc1)O2 (stereo unspecified) | 87 to 87.5
COc1ccc(C2=NN(C3CCCC3)C(=O)[C@H]3CC=CC[C@@H]23)cc1OC (relative stereo) | 131 to 133
Cc1csn(-c2ccc(Cl)c(Cl)c2)c1=O | 160 to 161
CCOC(=O)c1c(C)cc(OC)cc1C(=O)O | 142 to 143
CCOc1nsc(NC(=O)N(C)C)c1C(N)=O | 172
CC(=O)C(=O)c1ccc(NS(C)(=O)=O)c(Sc2ccc(F)cc2F)c1 | 108 to 109
COc1cccc2c(C)c3n(c(=O)c12)CCCS3(=O)=O | 198 to 199
CNC(=O)N1N=C(c2ccc([N+](=O)[O-])cc2)c2ccc(Cl)cc2CC1C (stereo unspecified) | 224 to 226
O=C(Nc1ccc(Cl)c(Cl)c1)NS(=O)(=O)c1ccc2c(c1)C(=O)CO2 | 209 to 211
CCN(CC)C(=O)Cc1ccc(O)c(C(C)(C)C)c1 | 124 to 126
COc1ccc(/C=C/C(=O)N2CC(CCl)c3c2cc(O)c2ncccc32)cc1O (stereo unspecified) | 215 to 218
c1ccc2c(c1)cc(-c1nnn[nH]1)c1nnnn12 | 280 to 282
COc1ccc(C2=NNC(=O)[C@H]3CC=CC[C@@H]23)c2c1OC(C)(C)C2 (relative stereo) | 242
CCOC(=O)CC1OC(=O)c2c(Oc3nc(OC)cc(OC)n3)cccc21 (stereo unspecified) | 150 to 152
CCc1nc(C)ccc1OC1SCC(OC(C)=O)C(OC(C)=O)C1OC(C)=O (stereo unspecified) | 123 to 127
CNC(=O)NS(=O)(=O)c1cc2c(cc1OC)OC(C)(C)C(NC(=O)c1cc(Cl)ccc1OC)C2 (stereo unspecified) | 248
COCN(c1noc(C)c1C)S(=O)(=O)C1(Br)C=CC=CC1 (stereo unspecified) | 71 to 72
Cc1nc(Sc2ccc(C(F)(F)F)cn2)sc1CC(=O)O | 113 to 114
Cn1ncc(C(=O)N2CCOCC2)c1C(=O)Nc1ccn2nc(-c3ccnc(F)c3)nc2c1 | > 280

Compound | melting point [°C]
CN1C(=O)CCC2(C)C3CCC4(C)C(OCC(N)=O)CCC4C3CCC12 (stereo unspecified) | 222 to 225
CCCc1cc(=O)oc2c3c(c4c(c12)OC(C)(C)C=C4)OC(C)C(C)C3O (single isomer, unassigned; (-)) | 52 to 54
O=C1Cc2ccc([N+](=O)[O-])cc21 | 126 to 127
O=C(O)c1cccc([N+](=O)[O-])c1O | 123
CC(C)(C)C(=O)C(CS(=O)(=O)c1ccccc1)n1cncn1 (stereo unspecified) | 135
Cc1ccnc(-c2cccnc2)c1OC1SCC(O)C(O)C1O (stereo unspecified) | 98
COc1cccc([C@H]2O[C@H](CC(=O)NCCCC(=O)O)C(=O)N(CC(C)(C)CO)c3ccc(Cl)cc32)c1OC | 111 to 113
c1cnc(Sc2cccc3cccnc23)nc1 | 165 to 168
CCN1CCN(c2c(F)c(N)c3c(=O)c(C(=O)O)cn(C4CC4)c3c2F)CCC1=O | 276 to 278
CCOC(=O)/C=C/c1cn(-c2ccc(C(F)(F)F)cc2)nc1C(C)C | 118 to 119
CN(C)c1ccc(C=O)c(O)c1 | 77 to 78
CC(C)(C)c1ccc(-c2ccc3c(c2)C=C(C(=O)O)CCO3)cc1 | 259 to 261
Cc1nc(NC(=N)N)sc1C(=O)N1CC[C@@H](COCC(=O)O)C1 | 136
CCCN1N=C2C(=Cc3ccc(OC)cc3)CS(=O)(=O)CC2C1c1ccc(OC)cc1 (stereo unspecified) | 195 to 198
CNC(=O)Nc1ccc(CCN2CCC(Nc3nc4ccccc4n3Cc3ccc(F)cc3)CC2)cc1 | 300
COc1cc([N+](=O)[O-])ccc1-c1cncs1 | 125 to 128
CCOC(=O)C(O)c1cc(Cl)cc2cccnc12 (stereo unspecified) | 121 to 124
C=C(C)C(=O)c1cc(O)c(O)c([N+](=O)[O-])c1 | 98 to 102
Cc1cc(O)cc(C)c1N=Cc1ccc(O)cc1O | 193 to 197
CCCCOC(=O)c1nc(Cl)c2ccc(OC(C)C)cc2c1O | 116 to 118
O=C(O)Cc1ccc2oc3ncccc3c(=O)c2c1 | 244 to 245

Compound | melting point [°C]
CC(=O)N1CCN(c2ncc3c(=O)c(C(=O)O)c[nH]c3n2)CC1 | 298 to 300
Nc1nnc(-c2cc3c(Oc4ccc(Br)cc4)cncc3s2)o1 | 270 to 273
CCOc1ccc2c(c1)n(C13CC4CC(CC(C4)C1)C3)c(=O)n2S(=O)(=O)c1ccc(NC(=O)N(CC)CC)cc1OC | 221
Cc1ccc(S(=O)(=O)N2CCCC2c2ccc(Cl)cc2)cc1 (racemic) | 121
NC(=O)NN=Cc1ccc(OCC2CCCCC2)cc1 | 218 to 219
COc1ccc2c(c1)CCC1=C2CCCN1C(C)=O | 119 to 120
N#CC1(Nc2ccccc2)CCN(C2c3ccccc3-c3ccccc32)CC1 | 165
O=C1C(=O)c2ccccc2C2=C1SCC(CN1CCC(O)CC1)O2 (stereo unspecified) | 98 to 100
CNc1nnc(C(C)(C)CCl)s1 | 91 to 93
CC(=O)Nc1nc2c(Oc3cc(-c4ccc(C(F)(F)F)nc4N(C)CC4CCCCN4CC(C)C)ncn3)cccc2s1 (stereo unspecified) | 123 to 125
O=[N+]([O-])c1ccc(OCCn2ccnc2)cc1 | 55 to 57
CCn1cnc2c(Nc3cccc(Cl)c3)nc(Cl)nc21 | 127 to 128
O=C(OCCO)c1ccc(C(=O)OCCO)cc1 | 108 to 110
CNc1nn2nnnc2c2c1CCCC2 | 318
C#Cc1cccc(Nc2ncnc3cnc(F)cc23)c1 | 225 to 227
CN1C(=O)[C@H](NC(=O)CCNc2ccccc2)N=C(c2ccccc2)c2ccccc21 | 218 to 221
FC(F)(F)c1cc(C(F)(F)F)c2[nH]c(N3CCN(c4ncccc4Br)CC3)nc2c1 | 166
CC(C)c1nsc2ccc(-n3c(=O)cc(C(F)(F)F)n(C)c3=O)cc12 | 139 to 140
N#Cc1c(N2CCOCC2)cccc1[N+](=O)[O-] | 152 to 155

Results, then the molecule that gave them:

melting point [°C] | Compound
205 to 206 | NC(=O)c1ccc(Cn2ccc(NC(=S)NCC(F)(F)F)n2)cc1
223 to 224 | Cc1nc2c(O)c(CCC(=O)c3ccccc3)c(C(=O)N(C)C)cc2n1C
240 to 242 | COc1cc(OC)c2c(=O)[nH]c(-c3ccc(OCCO)c(-c4ccccc4)n3)nc2c1
188 to 190 | Cn1c(CN2CC=C(/C=C/c3ccccc3)CC2)nc2ccccc21
245 to 246 | CC(C)c1cccc(C(C)C)c1NC(=O)NC(c1ccccc1)c1ccccc1
253 | Fc1ccc(Cn2c(NC3CCN(CCNc4nc5ccccc5[nH]4)CC3)nc3ccccc32)cc1
173 to 174 | CCCCOCCOc1ccc(-c2ccc3c(c2)C=C(C(=O)Nc2ccc(C(O)c4ccccn4)cc2)CCS3(=O)=O)cc1 (stereo unspecified)
132 to 133 | CC(C)CNCc1cc2cc(NC(=O)c3ccc(OC[C@@H]4CCCO4)cc3)ccc2n1C
218 | COc1ccc(C2CC(c3ccc(F)cc3)=NN2c2ccc(C(=O)O)cc2)cc1 (stereo unspecified)
206 to 207 | CC(C)(C)OC(=O)Nc1ccc(-c2ccc(-c3ccccc3)cc2)cc1N
126 to 127 | O=c1oc(-c2cccc(OCc3ccccc3)c2)cc(O)c1SCCc1ccccc1
164 to 165 | O=C(Nc1ccc(C(=O)N2C[C@@H]3C[C@H](O)CN3c3ccccc32)cc1)c1ccccc1-c1ccccc1
156 to 158 | O=C(O)CS(=O)(=O)Oc1cccc(-c2cn3c(n2)sc2ccccc23)c1
87 to 90 | O=C(O)CC(Cc1ccccc1)NC(=O)C1Cc2ccccc2N1S(=O)(=O)c1ccc(-c2ccc(F)cc2)cc1 (stereo unspecified)
118 to 119 | C=CCOc1nc2cccc(C(=O)OC)c2n1Cc1ccc(-c2ccccc2C#N)cc1
149 | O=Cc1ccccc1-c1noc2ccccc12
185 to 188 | Fc1ccc([C@@H]2Cc3cnc(Nc4ccc(CCN5CCCCC5)cc4)nc3-c3ccccc32)cc1
196 | CCCCc1nc2ccccc2n1Cc1ccc(C(=O)Nc2cccc3[nH]ccc23)cc1

melting point [°C] | Compound
60 | COc1cc(C(=O)NS(=O)(=O)c2ccccc2C)ccc1Cc1cn(C(C)C)c2ccc(CCCC(=O)N(C)C)cc12
128 to 130 | O=C(O)COc1cccc2c1CCc1sc(SCCC(c3ccccc3)c3ccccc3)nc1-2
110 to 120 | COc1ccc(C2(CCN3CCC(O)(c4nc5ccccc5n4Cc4ccc(F)cc4)CC3)CCN(C(=O)c3cc(OC)c(OC)c(OC)c3)C2)cc1OC (stereo unspecified)
133 to 134 | CCOC(Nc1ccccc1)(OCC)C1(Cl)C=CN=C(C(=O)c2ccccc2)C1 (stereo unspecified)
80 | O=C(NC1CC1c1ccccc1)C1Cc2ccccc2N1S(=O)(=O)c1ccc(-c2ccc(F)cc2)cc1 (stereo unspecified)
207 | O=C(Cc1ccc(F)cc1)Nc1cccc2nc(N[C@@H]3CCc4ccccc43)ccc12
186 to 187 | Cc1ccc(-c2nn(-c3ccccc3)c(N)c2C(N)=O)cc1
76 to 77 | CCCCCCCCCCCCCCOc1ccc(CN2C(=O)c3ccncc3C2=O)cc1
244 to 246 | O=C(O)C1(c2ccc(Cl)cc2)OCC2(CO1)c1ccccc1Oc1ccccc12
130 to 131 | CCCc1nn(CC)c2c(=S)[nH]c(-c3ccccc3OCC)nc12
171 to 172 | CCCc1c(OCCCOc2ccc(C(=O)O)cc2Cl)ccc(C(C)=O)c1O
95.5 to 96 | O=C(CCCCOc1ccc(OCc2ccccc2)cc1)C(F)(F)F
175 to 176 | Cc1nc(N2CCCCC2=O)sc1C(=O)NCc1ccccc1
260 to 264 | O=[N+]([O-])c1ccc2c(c1)C(Cc1ccncc1)(Cc1ccncc1)c1ccccc1-2
98.7 to 100 | CCCCCCCOc1ccc(-c2ccc(OCc3ccccc3)c(F)c2)cc1F
165 to 166 | CS(=O)(=O)c1ccc(C=C2/C(=N/O)CCc3ccccc32)cc1
180 | ON=C(c1cccc(F)c1)c1cccc2nc(N[C@@H]3CCc4ccccc43)ccc12
